Data published in patent US6949566B2, “Thiazole and oxazole derivatives” (Shionogi & Co. Ltd., priority 2000, dated 2005).

Each compound was assayed against T1, MMP-9 (Homo sapiens, UniProt P14780) (assay: Assay for inhibitory activities on MMPs (fluorogenic peptide substrate), MMP-9). Conditions: MMP-9 from HT1080 cells, activated by TPCK-Trypsin; substrate MOCAc-Pro-Leu-Gly-Leu-A2Pr(DNP)-Ala-Arg-NH2.
T1 construct: endogenous in cells; host or cells: HT1080 human fibrosarcoma cells, TPA-stimulated; enzyme purified from conditioned medium
Assay type: biochemical
Text: MMP-9 was isolated and purified by procedures described in as follows: Yasunori Okada, Yukio Gonoji, Katsumi Naka, Katsuro Tomita, Isao Nakanishi, Kazushi Iwata, Kyoko Yamashita, and Taro Hayakawa: Matrix metalloproteinase 9 (92-kDa gelatinase/type IV collagenase) from HT1080 human fibrosarcoma cells. Purification and activation of the precursor and enzymic properties J. Biol. Chem., 1992, 267 21712-21719, in combination with others: 1)Yasunori Okada, Tatsuhisa Morodomi, Jan J, Enghild, ko Suzuki, Atsushi Yasui, Isao Nakanishi, Guy Salvesen and Hideaki Nagase: Matrix metalloproteinase 2 from human rheumatoid synovial fibroblasts. Purification and activation of the precursor and enzymic properties. Eur. J. Biochem. 1990, 194 721-730; 2)Robin V Ward, Rosalind M Hembry, John J Reynolds and Gillian Murphy: The purification of tissue inhibitor of metalloproteinase-2 from its 72 kDa progelatinase complex. Biochem. J. 1991 278 179-187. In detail, human fibrosarcoma ATCC HT1080 cell line was cultured to confluent in Dulbecco's Modified Medium (DMEM) containing 10% fetal-calf serum at 37° C. for 48 hours. Subsequently, the medium of confluent culture was changed to serum-free DMEM medium. To obtain MMP-9, Phorbol-12-myristate-13-acetate (TPA) must be added to this serum-free DMEM medium at a concentration of 50 ng/ml. The TPA treated medium was centrifuged at 3000 rpm for 15 min and the supernatant was concentrated to 450 ml by a Toyo-Roshi UP-20 apparatus with an ultrafiltration membrane. Then, proMMP-9 in this concentrated solution was purified by using columns of Gelatin-Sepharose and Concanavalin A-Sepharose. The pool containing proMMP-9 was dialyzed, concentrated (Toyo-Roshi UP-20) and applied to columns of Sephacryl S-200 and Green A matrix for the separation from TIMPs. The obtained proMMP-9 fraction was activated by TPCK-Trypsin (Final conc. 3 μg/501 μl React Mix.).
(§1) The enzymatic activity on MMPs was analyzed by the method described in “C. Graham Knight, Frances Willenbrock and Gillian Murphy: A novel coumarin-labelled peptide for sensitive continuous assays of the matrix metalloproteinases: FEBS LETT., 296, (1992), 263-266”. The substrate MOCAc-Pro-Leu-Gly-Leu-A2Pr(DNP)-Ala-Arg-NH2 was purchased from Peptide Institute, Inc., Osaka, Japan. The measurement of the inhibitory activities (IC50) was carried out by the following four methods;
(§2) (A) Reaction with substrate, enzyme (MMPs) and inhibitor
(§3) (B) Reaction with substrate and inhibitor, without enzyme
(§4) (C) Reaction with substrate and enzyme (MMPs), without inhibitor
(§5) (D) Reaction with substrate only
(§6) IC50 values were calculated by using the following formula and each fluorescence values of above four methods (A to D). % inhibition={1−(A−B)/(C−D)}×100 IC50 means the concentration required to inhibit 50% of the enzyme activity.

T1 sequence (P14780 107-707 limits assumed): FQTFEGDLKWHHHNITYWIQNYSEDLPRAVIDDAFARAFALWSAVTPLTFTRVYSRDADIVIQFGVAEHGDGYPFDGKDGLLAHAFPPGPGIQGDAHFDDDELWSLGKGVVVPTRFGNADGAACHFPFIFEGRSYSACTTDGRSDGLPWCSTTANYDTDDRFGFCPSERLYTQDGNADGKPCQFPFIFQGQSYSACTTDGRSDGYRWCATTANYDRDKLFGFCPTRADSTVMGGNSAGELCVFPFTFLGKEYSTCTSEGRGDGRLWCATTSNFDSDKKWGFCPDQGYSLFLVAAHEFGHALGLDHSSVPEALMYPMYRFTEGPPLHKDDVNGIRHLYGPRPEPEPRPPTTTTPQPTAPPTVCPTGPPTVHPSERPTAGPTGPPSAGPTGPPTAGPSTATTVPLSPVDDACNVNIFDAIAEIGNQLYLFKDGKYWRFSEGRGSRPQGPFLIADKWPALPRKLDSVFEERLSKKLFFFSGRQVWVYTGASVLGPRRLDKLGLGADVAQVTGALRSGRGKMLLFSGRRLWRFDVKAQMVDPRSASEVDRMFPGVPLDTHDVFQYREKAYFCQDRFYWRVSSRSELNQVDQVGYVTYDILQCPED

| Structure (SMILES) | IC50 |
| --- | --- |
| O=C(O)[C@@H](Cc1ccccc1)NS(=O)(=O)c1ccc(-c2ncc(-c3ccc(F)cc3)s2)cc1 [Compound B-17] | 22.6 nM |
| COc1ccc(-c2cnc(-c3ccc(S(=O)(=O)N[C@@H](C(=O)O)C(C)C)cc3)s2)cc1 [Compound B-6] | 10 nM |
| CSCC[C@@H](NS(=O)(=O)c1ccc(-c2ncc(-c3ccccc3)s2)cc1)C(=O)O [Compound B-45] | 26.3 nM |

Further lines, results first:

| IC50 | Structure (SMILES) |
| --- | --- |
| 1810 nM | CC(C)[C@H](NS(=O)(=O)c1ccc(-c2ncc(-c3ccc(F)cc3)o2)cc1)C(=O)O [Compound A-26] |
| 5.82 nM | C[C@@H](NS(=O)(=O)c1ccc(-c2ncc(-c3ccc(Br)cc3)s2)cc1)C(=O)O [Compound B-29] |

These compounds were tested against T2, MMP-8 (Homo sapiens, UniProt P22894) (assay: Assay for inhibitory activities on MMPs (fluorogenic peptide substrate), MMP-8). Conditions: catalytic domain 99Phe-262Gly; substrate MOCAc-Pro-Leu-Gly-Leu-A2Pr(DNP)-Ala-Arg-NH2.
T2 construct: catalytic domain (^99Phe˜^262Gly) was amplified with PCR; His-tag; enterokinase digestion-site; made in house; host or cells: Escherichia coli
Assay type: biochemical
Text: In regard to MMP-8, catalytic domain (^99Phe˜^262Gly) was amplified with PCR using commercial available Human Bone Marrow cDNA. This was cloned in Escherichia. coli expression vector pTrc99AHE inserted with His-tag sequence and enterokinase digestion-site, induced and expressed by IPTG (Isopropyl-β-D-thiogalactopyranoside) and expressed in a insoluble fraction (Thau F. Ho, M. Walid Qoronfleh, Robert C. Wahl, Trica A. Pulvino, Karen J. Vavra, Joe Falvo, Tracey M. Banks, Patricia G. Brake and Richard B. Ciccarelli: Gene expression, purification and characterization of recombinant human neutrophil collagenase. Gene 146, (1994) 297-301, Prepared by the a improved method of this material). Isolation of MMP-8 from an insoluble fraction was carried out by dissolving in modifier (6M urea) by a usual method and purification with metal chelate chromatography. And then removing modifier (6M urea) with dialysis and refolding of the enzyme spontaneously gave activated MMP-8.
as §1, §2, §3, §4, §5, §6

T2 sequence (P22894 99-262): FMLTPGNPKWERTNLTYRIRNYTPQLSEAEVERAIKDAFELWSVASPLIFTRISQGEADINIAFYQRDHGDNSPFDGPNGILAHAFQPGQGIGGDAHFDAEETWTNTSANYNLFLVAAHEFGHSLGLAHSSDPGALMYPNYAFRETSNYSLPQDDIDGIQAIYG

| Structure (SMILES) | IC50 |
| --- | --- |
| O=C(O)[C@@H](Cc1ccccc1)NS(=O)(=O)c1ccc(-c2ncc(-c3ccc(F)cc3)s2)cc1 [Compound B-17] | 22.4 nM |
| COc1ccc(-c2cnc(-c3ccc(S(=O)(=O)N[C@@H](C(=O)O)C(C)C)cc3)s2)cc1 [Compound B-6] | 6.47 nM |
| CSCC[C@@H](NS(=O)(=O)c1ccc(-c2ncc(-c3ccccc3)s2)cc1)C(=O)O [Compound B-45] | 29 nM |

Further lines, results first:

| IC50 | Structure (SMILES) |
| --- | --- |
| 569 nM | CC(C)[C@H](NS(=O)(=O)c1ccc(-c2ncc(-c3ccc(F)cc3)o2)cc1)C(=O)O [Compound A-26] |
| 45.2 nM | C[C@@H](NS(=O)(=O)c1ccc(-c2ncc(-c3ccc(Br)cc3)s2)cc1)C(=O)O [Compound B-29] |

Each compound was assayed against T3, MMP-13 (Homo sapiens, UniProt P45452) (assay: Assay for inhibitory activities on MMPs (fluorogenic peptide substrate), MMP-13). Conditions: catalytic domain 104Tyr-267Gly; substrate MOCAc-Pro-Leu-Gly-Leu-A2Pr(DNP)-Ala-Arg-NH2.
T3 construct: catalytic domain (^104Tyr˜^267Gly) was amplified with RT-PCR; His-tag; enterokinase digestion-site; made in house; host or cells: Escherichia coli
Assay type: biochemical
Protocol: (§7) In regard to MMP-13, mRNA was prepared from carcinoma cell SW1353 derived from human cartilage stimulate by IL-1, TNF and catalytic domain (^104Tyr˜^267Gly) was amplified with RT-PCR. This was cloned in Escherichia. coli expression vector pTrc99AHE inserted with His-tag sequence and enterokinase digestion-site, induced and expressed by IPTG (Isopropyl-β-D-thiogalactopyranoside) and expressed in a insoluble fraction. Isolation of MMP-13 from an insoluble fraction was carried out by dissolving in modifier (6M urea) by a usual method and purification with metal chelate chromatography (Ni Chelateing Sepharose). And then removing modifier (6M urea) with dialyze and refolding of the enzyme spontaneously gave activated MMP-13.
as §1, §2, §3, §4, §5, §6

| IC50 | Structure (SMILES) |
| --- | --- |
| 12.1 nM | O=C(O)[C@@H](Cc1ccccc1)NS(=O)(=O)c1ccc(-c2ncc(-c3ccc(F)cc3)s2)cc1 [Compound B-17] |
| 1.16 nM | COc1ccc(-c2cnc(-c3ccc(S(=O)(=O)N[C@@H](C(=O)O)C(C)C)cc3)s2)cc1 [Compound B-6] |
| 17.5 nM | CSCC[C@@H](NS(=O)(=O)c1ccc(-c2ncc(-c3ccccc3)s2)cc1)C(=O)O [Compound B-45] |
| 2.6 nM | C[C@@H](NS(=O)(=O)c1ccc(-c2ncc(-c3ccc(Br)cc3)s2)cc1)C(=O)O [Compound B-29] |

What follows are compounds tested against T4, MMP-2 (Homo sapiens, UniProt P08253) (assay: Assay for inhibitory activities on MMPs (fluorogenic peptide substrate), MMP-2). Conditions: purchased MMP-2; substrate MOCAc-Pro-Leu-Gly-Leu-A2Pr(DNP)-Ala-Arg-NH2.
T4 construct: purchased Calbiochem-Novabiochem International, Inc
T4 sequence (P08253 110-660): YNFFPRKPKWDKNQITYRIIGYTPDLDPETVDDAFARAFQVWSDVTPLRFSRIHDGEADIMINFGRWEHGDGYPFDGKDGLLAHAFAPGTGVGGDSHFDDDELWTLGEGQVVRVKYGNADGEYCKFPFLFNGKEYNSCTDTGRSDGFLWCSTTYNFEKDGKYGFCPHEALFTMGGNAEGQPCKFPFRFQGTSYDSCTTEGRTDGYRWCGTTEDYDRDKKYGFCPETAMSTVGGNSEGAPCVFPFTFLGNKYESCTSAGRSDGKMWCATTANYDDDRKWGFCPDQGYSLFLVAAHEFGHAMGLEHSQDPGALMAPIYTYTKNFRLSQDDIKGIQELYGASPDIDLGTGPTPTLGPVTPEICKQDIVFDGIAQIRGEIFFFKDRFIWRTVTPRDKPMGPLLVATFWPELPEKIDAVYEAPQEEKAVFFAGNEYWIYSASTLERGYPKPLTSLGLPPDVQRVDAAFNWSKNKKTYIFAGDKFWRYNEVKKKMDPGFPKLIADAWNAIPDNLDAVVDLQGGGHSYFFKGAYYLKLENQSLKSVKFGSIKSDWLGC
Assay type: biochemical
Protocol: MMP-2 was purchased from Calbiochem-Novabiochem International, Inc.
as §1, §2, §3, §4, §5, §6

| Structure (SMILES) | IC50 |
| --- | --- |
| O=C(O)[C@@H](Cc1ccccc1)NS(=O)(=O)c1ccc(-c2ncc(-c3ccc(F)cc3)s2)cc1 [Compound B-17] | 2.09 nM |
| COc1ccc(-c2cnc(-c3ccc(S(=O)(=O)N[C@@H](C(=O)O)C(C)C)cc3)s2)cc1 [Compound B-6] | 0.347 nM |
| CSCC[C@@H](NS(=O)(=O)c1ccc(-c2ncc(-c3ccccc3)s2)cc1)C(=O)O [Compound B-45] | 2.15 nM |

Continued, values first:

| IC50 | Structure (SMILES) |
| --- | --- |
| 514 nM | CC(C)[C@H](NS(=O)(=O)c1ccc(-c2ncc(-c3ccc(F)cc3)o2)cc1)C(=O)O [Compound A-26] |
| 0.313 nM | C[C@@H](NS(=O)(=O)c1ccc(-c2ncc(-c3ccc(Br)cc3)s2)cc1)C(=O)O [Compound B-29] |

These compounds were tested against T5, MMP-12 (Homo sapiens, UniProt P39900) (assay: Assay for inhibitory activities on MMPs (fluorogenic peptide substrate), MMP-12). Conditions: catalytic domain 100Phe-263Gly; substrate MOCAc-Pro-Leu-Gly-Leu-A2Pr(DNP)-Ala-Arg-NH2.
T5 construct: catalytic domain(^100Phe˜^263Gly) was amplified with RT-PCR; His-tag; enterokinase digestion-site; made in house; host or cells: Escherichia coli
Assay type: biochemical
Protocol: as §7, with “MMP-12,” for “MMP-13, mRNA was prepared from carcinoma cell SW1353 derived from human cartilage stimulate by IL-1, TNF and”, “domain(^100Phe˜^263Gly)” for “domain (^104Tyr˜^267Gly)”, “RT-PCR from Human Placenta Total RNA.” for “RT-PCR.”, “MMP-12” for “MMP-13”, “dialysis” for “dialyze”, “MMP-12.” for “MMP-13.”
as §1, §2, §3, §4, §5, §6

T5 sequence (P39900 100-263): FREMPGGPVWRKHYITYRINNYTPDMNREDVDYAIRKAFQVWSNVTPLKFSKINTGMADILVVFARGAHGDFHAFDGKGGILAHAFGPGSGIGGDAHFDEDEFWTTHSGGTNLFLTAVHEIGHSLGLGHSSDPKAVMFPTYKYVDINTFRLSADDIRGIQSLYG

| Structure (SMILES) | IC50 |
| --- | --- |
| O=C(O)[C@@H](Cc1ccccc1)NS(=O)(=O)c1ccc(-c2ncc(-c3ccc(F)cc3)s2)cc1 [Compound B-17] | 3.21 nM |
| COc1ccc(-c2cnc(-c3ccc(S(=O)(=O)N[C@@H](C(=O)O)C(C)C)cc3)s2)cc1 [Compound B-6] | 0.37 nM |
| CSCC[C@@H](NS(=O)(=O)c1ccc(-c2ncc(-c3ccccc3)s2)cc1)C(=O)O [Compound B-45] | 2.66 nM |

Second part, the compound after the results:

| IC50 | Structure (SMILES) |
| --- | --- |
| 40.2 nM | CC(C)[C@H](NS(=O)(=O)c1ccc(-c2ncc(-c3ccc(F)cc3)o2)cc1)C(=O)O [Compound A-26] |
| 0.47 nM | C[C@@H](NS(=O)(=O)c1ccc(-c2ncc(-c3ccc(Br)cc3)s2)cc1)C(=O)O [Compound B-29] |
